Reference: patent US11040027B2, “Protein kinase inhibitors for promoting liver regeneration or reducing or preventing hepatocyte death” (HEPAREGENIX GMBH, priority 2017, dated 2021)

Legend:
BRaf = BRaf (Homo sapiens, UniProt P15056); experiment: KINOMEscan competition binding assay, selectivity BRaf versus MKK4; conditions: Test conc. 0.1 μM; ratio of percent of control; N/E* per footnote
Method: The assay was performed by combining three components: DNA-tagged kinase; immobilized ligand; and a test compound. The ability of the test compound to compete with the immobilized ligand was measured via quantitative PCR of the DNA tag. The technology is described in detail in Fabian, M. A. et al. A small molecule-kinase interaction map for clinical kinase inhibitors. Nat. […] Nat.
The test compounds were provided as 10 mM stock solutions. The test solutions at indicated final concentrations were prepared at DiscoverX.

MKK4 = molecular target: T1, MKK4 (Homo sapiens, UniProt P45985); experiment: KINOMEscan competition binding assay, MKK4; conditions: read-out: Potency MKK4 (derived from % of control values, PoC)
T1 sequence (P45985 84-399): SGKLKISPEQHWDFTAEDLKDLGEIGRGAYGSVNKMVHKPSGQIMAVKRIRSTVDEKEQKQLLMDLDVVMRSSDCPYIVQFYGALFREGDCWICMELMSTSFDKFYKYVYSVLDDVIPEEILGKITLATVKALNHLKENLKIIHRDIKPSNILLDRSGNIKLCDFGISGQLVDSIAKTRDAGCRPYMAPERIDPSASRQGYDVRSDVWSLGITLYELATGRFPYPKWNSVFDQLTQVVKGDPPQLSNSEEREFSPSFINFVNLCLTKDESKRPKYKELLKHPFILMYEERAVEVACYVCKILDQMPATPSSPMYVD

JNK1 = JNK1 (Homo sapiens, UniProt P45983); experiment: KINOMEscan competition binding assay, selectivity JNK1 versus MKK4; conditions: ratio of percent of control
JNK1, sequence (P45983 1-384 isoform P45983-2): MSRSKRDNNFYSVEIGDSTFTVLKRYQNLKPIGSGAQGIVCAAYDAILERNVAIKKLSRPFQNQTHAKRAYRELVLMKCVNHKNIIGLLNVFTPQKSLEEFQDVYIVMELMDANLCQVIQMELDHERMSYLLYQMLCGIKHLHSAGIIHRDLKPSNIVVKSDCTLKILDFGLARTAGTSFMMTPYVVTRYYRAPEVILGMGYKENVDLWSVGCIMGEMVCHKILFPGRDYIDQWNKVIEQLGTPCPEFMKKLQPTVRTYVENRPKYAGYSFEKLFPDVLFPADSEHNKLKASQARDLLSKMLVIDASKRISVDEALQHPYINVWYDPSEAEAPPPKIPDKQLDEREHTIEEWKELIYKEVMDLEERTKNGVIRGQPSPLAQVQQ
Method: (§1) For investigation of the affinity to MKK4, MKK7 and JNK1, the kinases were produced in HEK-293 cells and subsequently tagged with DNA for qPCR detection. […] The liganded beads were blocked with excess biotin and washed with blocking buffer (SEABLOCK™ (Pierce), 1% BSA, 0.05% TWEEN®20, 1 mM DTT) to remove unbound ligand and to reduce nonspecific binding. […] All reactions were performed in polystyrene 96-well plates in a final volume of 0.135 mL. […] The kinase concentration in the eluates was measured by qPCR.

MKK7 = molecular target: T2, MKK7 (Homo sapiens, UniProt O14733); experiment: KINOMEscan competition binding assay, selectivity MKK7 versus MKK4; conditions: Test conc. 0.1 μM; ratio of percent of control; N/E* per footnote
T2 sequence (O14733 1-419): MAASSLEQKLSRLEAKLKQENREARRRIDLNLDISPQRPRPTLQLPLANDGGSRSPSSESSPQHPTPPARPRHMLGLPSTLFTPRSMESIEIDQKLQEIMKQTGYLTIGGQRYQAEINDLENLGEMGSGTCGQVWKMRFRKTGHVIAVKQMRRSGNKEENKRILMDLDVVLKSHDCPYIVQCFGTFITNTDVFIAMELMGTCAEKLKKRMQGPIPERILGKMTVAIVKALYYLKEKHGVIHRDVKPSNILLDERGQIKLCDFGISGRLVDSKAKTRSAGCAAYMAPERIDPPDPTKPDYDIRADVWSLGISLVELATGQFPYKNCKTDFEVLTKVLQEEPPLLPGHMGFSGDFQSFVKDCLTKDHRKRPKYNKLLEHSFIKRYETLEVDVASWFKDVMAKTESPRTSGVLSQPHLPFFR
Method: as §1

[1] = Test conc 0.1 μM, N/E* = PoC for JNK1 = 100

BRaf, sequence (P15056 whole entry): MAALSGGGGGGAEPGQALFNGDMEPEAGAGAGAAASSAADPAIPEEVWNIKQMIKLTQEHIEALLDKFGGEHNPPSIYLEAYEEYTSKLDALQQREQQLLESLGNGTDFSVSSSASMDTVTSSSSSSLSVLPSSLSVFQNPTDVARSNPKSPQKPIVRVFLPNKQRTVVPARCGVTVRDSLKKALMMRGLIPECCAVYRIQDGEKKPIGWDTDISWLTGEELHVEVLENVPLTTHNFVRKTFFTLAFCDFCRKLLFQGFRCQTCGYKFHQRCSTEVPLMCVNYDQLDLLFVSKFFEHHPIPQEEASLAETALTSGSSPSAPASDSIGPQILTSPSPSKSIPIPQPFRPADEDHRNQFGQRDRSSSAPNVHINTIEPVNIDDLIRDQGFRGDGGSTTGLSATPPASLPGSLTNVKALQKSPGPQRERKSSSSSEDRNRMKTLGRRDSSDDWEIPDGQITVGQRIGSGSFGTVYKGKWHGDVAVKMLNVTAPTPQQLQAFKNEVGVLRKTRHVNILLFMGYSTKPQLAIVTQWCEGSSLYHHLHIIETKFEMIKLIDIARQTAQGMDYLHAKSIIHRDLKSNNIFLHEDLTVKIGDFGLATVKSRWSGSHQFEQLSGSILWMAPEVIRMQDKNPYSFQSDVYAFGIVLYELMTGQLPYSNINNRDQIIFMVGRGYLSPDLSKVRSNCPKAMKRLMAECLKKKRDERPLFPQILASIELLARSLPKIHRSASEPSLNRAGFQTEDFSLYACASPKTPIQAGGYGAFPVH

Compound	Selectivity BRaf/MKK4 (BRaf)	remaining binding at 0.1 µM (MKK4) [%]	Selectivity JNK1/MKK4 (JNK1; Test conc 10 μM)	Selectivity MKK7/MKK4 (MKK7)	Selectivity JNK1/MKK4 (JNK1; [1])	remaining binding at 1 µM (MKK4) [%]
CCCS(=O)(=O)Nc1ccc(F)c(C(=O)c2c[nH]c3ncc(-c4cccc5ccccc45)cc23)c1F [Example 18, N-(2,4-Difluoro-3-(5-(naphthalen-1-yl)-1H-pyrrolo[2,3-b]pyridine-3-carbonyl)phenyl)propane-1-sulfonamide]	1.6	> 30	40	3	–	–
CCCS(=O)(=O)Nc1cc(C)cc(C(=O)c2c[nH]c3ncc(-c4ccc(Cl)cc4)cc23)c1 [Example 24, N-(3-(5-(4-Chlorophenyl)-1H-pyrrolo[2,3-b]pyridine-3-carbonyl)-5-methylphenyl)propane-1-sulfonamide]	0.9	> 30	–	1.0	N/E* (PoC for JNK1 = 100)	–
CCCS(=O)(=O)Nc1cccc(C(=O)c2c[nH]c3ncc(-c4ccc(Cl)cc4)cc23)c1C [Example 25, N-(3-(5-(4-Chlorophenyl)-1H-pyrrolo[2,3-b]pyridine-3-carbonyl)-2-methylphenyl)propane-1-sulfonamide]	1.0	> 30	–	1.0	N/E* (PoC for JNK1 = 100)	–
CCCCS(=O)(=O)Nc1cccc(C(=O)c2c[nH]c3ncc(-c4ccc(F)cc4C)cc23)c1F [Example 51]	N/E* (PoC for JNK1 = 100)	< 10	–	N/E* (PoC for JNK1 = 100)	N/E* (PoC for JNK1 = 100)	–
CCCS(=O)(=O)Nc1ccc(F)c(C(=O)c2c[nH]c3ncc(-c4ccc(OC(C)C)cc4Cl)cc23)c1F [Example 96, N-(3-(5-(2-chloro-4-isopropoxy-phenyl)-1H-pyrrolo[2,3-b]pyridine-3-carbonyl)-2,4-difluorophenyl)-propane-1-sulfonamide]	8.0	10 to 30	–	N/E* (PoC for JNK1 = 100)	8.7	–
CCCS(=O)(=O)Nc1ccc(F)c(C(=O)c2c[nH]c3ncc(-c4ccc(OCCOC)cc4Cl)cc23)c1F [Example 98, N-(3-(5-(2-chloro-4-(2-methoxy-ethoxy)phenyl)-1H-pyrrolo[2,3-b]pyridine-3-carbonyl)-2,4-difluorophenyl)propane-1-sulfonamide]	8.4	< 10	–	20	16	–
CCCS(=O)(=O)Nc1ccc(F)c(C(=O)c2c[nH]c3ncc(-c4ccc(OC5CCCC5)cc4Cl)cc23)c1F [Example 99, N-(3-(5-(2-chloro-4-(cyclopentyl-oxy)phenyl)-1H-pyrrolo[2,3-b]pyridine-3-carbonyl)-2,4-difluorophenyl)propane-1-sulfonamide]	1.9	> 30	–	2.0	2.0	–
CCCS(=O)(=O)Nc1ccc(F)c(C(=O)c2c[nH]c3ncc(-c4ccc(OCC5CC5)cc4Cl)cc23)c1F [Example 100, N-(3-(5-(2-chloro-4-(cyclopropyl-methoxy)phenyl)-1H-pyrrolo[2,3-b]pyridine-3-carbonyl)-2,4-difluorophenyl)propane-1-sulfonamide]	17	> 30	–	N/E* (PoC for JNK1 = 100)	2.2	–

Second part, the compound after the results:

Selectivity BRaf/MKK4 (BRaf)	remaining binding at 0.1 µM (MKK4) [%]	Selectivity JNK1/MKK4 (JNK1; Test conc 10 μM)	Selectivity MKK7/MKK4 (MKK7)	Selectivity JNK1/MKK4 (JNK1; [1])	remaining binding at 1 µM (MKK4) [%]	Compound
3.3	> 30	–	3.3	N/E* (PoC for JNK1 = 100)	–	CCCS(=O)(=O)Nc1ccc(F)c(C(=O)c2c[nH]c3ncc(-c4ccc(Cl)cc4Cl)cc23)c1F [Example 41, N-(3-(5-(2,4-Dichlorophenyl)-1H-pyrrolo[2,3-b]pyridine-3-carbonyl)-2,4-difluorophenyl)propane-1-sulfonamide]
8.9	< 10	–	N/E* (PoC for JNK1 = 100)	7.1	–	CCCS(=O)(=O)Nc1ccc(F)c(C(=O)c2c[nH]c3ncc(-c4ccc(Cl)cc4F)cc23)c1F [Example 49]
20	< 10	–	22	25	–	CCCS(=O)(=O)Nc1ccc(F)c(C(=O)c2c[nH]c3ncc(-c4ccc(O)cc4Cl)cc23)c1F [Example 94, N-(3-(5-(2-chloro-4-hydroxy-phenyl)-1H-pyrrolo[2,3-b]pyridine-3-carbonyl)-2,4-difluoro-phenyl)propane-1-sulfonamide]
6.5	< 10	–	N/E* (PoC for JNK1 = 100)	8.6	–	CCCS(=O)(=O)Nc1ccc(F)c(C(=O)c2c[nH]c3ncc(-c4ccc(OCC)cc4Cl)cc23)c1F [Example 95, N-(3-(5-(2-chloro-4-ethoxy-phenyl)-1H-pyrrolo[2,3-b]pyridine-3-carbonyl)-2,4-difluorophenyl)-propane-1-sulfonamide]
6.5	10 to 30	–	N/E* (PoC for JNK1 = 100)	8.6	–	CCCOc1ccc(-c2cnc3[nH]cc(C(=O)c4c(F)ccc(NS(=O)(=O)CCC)c4F)c3c2)c(Cl)c1 [Example 97, N-(3-(5-(2-chloro-4-propoxy-phenyl)-1H-pyrrolo[2,3-b]pyridine-3-carbonyl)-2,4-difluorophenyl)-propane-1-sulfonamide]
7.2	< 10	–	N/E* (PoC for JNK1 = 100)	28	–	CCCS(=O)(=O)Nc1ccc(F)c(C(=O)c2c[nH]c3ncc(-c4ccccc4)cc23)c1F [Example 101, N-(2,4-difluoro-3-(5-phenyl-1H-pyrrolo[2,3-b]pyridine-3-carbonyl)phenyl)propane-1-sulfonamide]
17	< 10	–	N/E* (PoC for JNK1 = 100)	N/E* (PoC for JNK1 = 100)	–	CCCS(=O)(=O)Nc1ccc(F)c(C(=O)c2c[nH]c3ncc(-c4ccc(OCOC)cc4Cl)cc23)c1F [Example 102, N-(3-(5-(2-chloro-4-(methoxymethoxy)phenyl)-1H-pyrrolo[2,3-b]pyridine-3-carbonyl)-2,4-difluorophenyl)propane-1-sulfonamide]
N/E* (PoC for JNK1 = 100)	–	–	<1	N/E* (PoC for JNK1 = 100)	> 30	CCCS(=O)(=O)Nc1nc(C(=O)c2c[nH]c3ncc(-c4ccc(Cl)cc4)cc23)cs1 [Example 111, N-(4-(5-(4-chlorophenyl)-1H-pyrrolo[2,3-b]pyridine-3-carbonyl)thiazol-2-yl)propane-1-sulfonamide]
